Source: the supplement of paper PMC11451515

Tested on: P12-Ichikawa
Assay: cell viability relative to DMSO control; higher = less cytotoxic
Conditions: 48 h
Summary of the method: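 NOMO1 or SEM (500 cells/well) or P12-Ichikawa (1000 cells/well) leukemia cells were adapted for at least four passages in each medium. They were seeded in 1536-well plates (5 μl) and pin-dosed with library compounds in DMSO over an 11-point threefold series, 47 μM to 0.79 nM. CellTiter-Glo One luminescence was read after 48 h at 37°C. Viability is the per-plate percentage relative to DMSO wells, with cell-free wells as background.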

[1] = HPLM + 10% dialyzed FBS, 0.000781 µM
[2] = HPLM + 10% dialyzed FBS, 0.00234 µM
[3] = HPLM + 10% dialyzed FBS, 0.00702 µM
[4] = HPLM + 10% dialyzed FBS, 0.0211 µM
[5] = HPLM + 10% dialyzed FBS, 0.0632 µM
[6] = HPLM + 10% dialyzed FBS, 0.19 µM
[7] = HPLM + 10% dialyzed FBS, 0.569 µM
[8] = HPLM + 10% dialyzed FBS, 1.71 µM
[9] = HPLM + 10% dialyzed FBS, 5.12 µM
[10] = HPLM + 10% dialyzed FBS, 15.4 µM
[11] = HPLM + 10% dialyzed FBS, 46.1 µM
[12] = RPMI 5 mM glucose + 10% FBS, 0.000781 µM
[13] = RPMI 5 mM glucose + 10% FBS, 0.00234 µM
[14] = RPMI 5 mM glucose + 10% FBS, 0.00702 µM
[15] = RPMI 5 mM glucose + 10% FBS, 0.0211 µM
[16] = RPMI 5 mM glucose + 10% FBS, 0.0632 µM
[17] = RPMI 5 mM glucose + 10% FBS, 0.19 µM
[18] = RPMI 5 mM glucose + 10% FBS, 0.569 µM
[19] = RPMI 5 mM glucose + 10% FBS, 1.71 µM
[20] = RPMI 5 mM glucose + 10% FBS, 5.12 µM
[21] = RPMI 5 mM glucose + 10% FBS, 15.4 µM
[22] = RPMI 5 mM glucose + 10% FBS, 46.1 µM
[23] = RPMI 5 mM glucose + 10% dialyzed FBS, 0.000781 µM
[24] = RPMI 5 mM glucose + 10% dialyzed FBS, 0.00234 µM
[25] = RPMI 5 mM glucose + 10% dialyzed FBS, 0.00702 µM
[26] = RPMI 5 mM glucose + 10% dialyzed FBS, 0.0211 µM
[27] = RPMI 5 mM glucose + 10% dialyzed FBS, 0.0632 µM
[28] = RPMI 5 mM glucose + 10% dialyzed FBS, 0.19 µM
[29] = RPMI 5 mM glucose + 10% dialyzed FBS, 0.569 µM
[30] = RPMI 5 mM glucose + 10% dialyzed FBS, 1.71 µM
[31] = RPMI 5 mM glucose + 10% dialyzed FBS, 5.12 µM
[32] = RPMI 5 mM glucose + 10% dialyzed FBS, 15.4 µM
[33] = RPMI 5 mM glucose + 10% dialyzed FBS, 46.1 µM

| SMILES | cell viability [1] | cell viability [2] | cell viability [3] | cell viability [4] | cell viability [5] | cell viability [6] | cell viability [7] | cell viability [8] | cell viability [9] | cell viability [10] | cell viability [11] | cell viability [12] | cell viability [13] | cell viability [14] | cell viability [15] | cell viability [16] | cell viability [17] | cell viability [18] | cell viability [19] | cell viability [20] | cell viability [21] | cell viability [22] | cell viability [23] | cell viability [24] | cell viability [25] | cell viability [26] | cell viability [27] | cell viability [28] | cell viability [29] | cell viability [30] | cell viability [31] | cell viability [32] | cell viability [33] |
| --- | --- | --- | --- | --- | --- | --- | --- | --- | --- | --- | --- | --- | --- | --- | --- | --- | --- | --- | --- | --- | --- | --- | --- | --- | --- | --- | --- | --- | --- | --- | --- | --- | --- |
| O=C(C1CC1)N1CC[C@@H](Cn2c(-c3ccc(-c4ccc5occc5c4)cc3)nc3cnccc32)C1 | 101% | 117% | 108% | 114% | 117% | 126% | 122% | 127% | 124% | 119% | 111% | 92.7% | 117% | 120% | 121% | 131% | 119% | 124% | 132% | 111% | 124% | 83.5% | 106% | 112% | 102% | 120% | 116% | 128% | 121% | 128% | 123% | 119% | 93% |
| COc1nccc(-c2c(-c3ccc(F)cc3)ncn2C2CCC(O)CC2)n1 (centres undefined) | 121% | 117% | 112% | 108% | 118% | 115% | 103% | 105% | 101% | 98.3% | 75.1% | 113% | 120% | 122% | 116% | 111% | 110% | 117% | 112% | 110% | 106% | 86.3% | 126% | 121% | 114% | 117% | 120% | 123% | 118% | 115% | 115% | 115% | 41.2% |
| O=C(O)CCNc1cc(N2CCc3ccccc3CC2)nc(-c2ccccn2)n1 | 119% | 116% | 115% | 127% | 114% | 111% | 117% | 112% | 114% | 102% | 88.5% | 122% | 119% | 113% | 110% | 114% | 123% | 123% | 128% | 104% | 97.8% | 69.2% | 116% | 130% | 123% | 126% | 123% | 109% | 115% | 121% | 114% | 102% | 79.6% |
